# Results: patent US12427192B2, “Water soluble adjuvant and composition containing same” (Sumitomo Pharma Co., Ltd., priority 2019, dated 2025)
# Tests used:
# human TLR7 [1] = molecular target: T1, human TLR7 (Homo sapiens, UniProt Q9NYK1); experiment: Human TLR7 reporter gene assay (HEK-Blue hTLR7 cell line), Test 22; format: cell-based; settings: method of Test 1
# T1 construct: expresses full-length human TLR7 and secretory alkaline phosphatase (SEAP) reporter gene; host or cells: HEK293 (TLR7/NF-κB/SEAPorter)
# T1 sequence (Q9NYK1 27-1049): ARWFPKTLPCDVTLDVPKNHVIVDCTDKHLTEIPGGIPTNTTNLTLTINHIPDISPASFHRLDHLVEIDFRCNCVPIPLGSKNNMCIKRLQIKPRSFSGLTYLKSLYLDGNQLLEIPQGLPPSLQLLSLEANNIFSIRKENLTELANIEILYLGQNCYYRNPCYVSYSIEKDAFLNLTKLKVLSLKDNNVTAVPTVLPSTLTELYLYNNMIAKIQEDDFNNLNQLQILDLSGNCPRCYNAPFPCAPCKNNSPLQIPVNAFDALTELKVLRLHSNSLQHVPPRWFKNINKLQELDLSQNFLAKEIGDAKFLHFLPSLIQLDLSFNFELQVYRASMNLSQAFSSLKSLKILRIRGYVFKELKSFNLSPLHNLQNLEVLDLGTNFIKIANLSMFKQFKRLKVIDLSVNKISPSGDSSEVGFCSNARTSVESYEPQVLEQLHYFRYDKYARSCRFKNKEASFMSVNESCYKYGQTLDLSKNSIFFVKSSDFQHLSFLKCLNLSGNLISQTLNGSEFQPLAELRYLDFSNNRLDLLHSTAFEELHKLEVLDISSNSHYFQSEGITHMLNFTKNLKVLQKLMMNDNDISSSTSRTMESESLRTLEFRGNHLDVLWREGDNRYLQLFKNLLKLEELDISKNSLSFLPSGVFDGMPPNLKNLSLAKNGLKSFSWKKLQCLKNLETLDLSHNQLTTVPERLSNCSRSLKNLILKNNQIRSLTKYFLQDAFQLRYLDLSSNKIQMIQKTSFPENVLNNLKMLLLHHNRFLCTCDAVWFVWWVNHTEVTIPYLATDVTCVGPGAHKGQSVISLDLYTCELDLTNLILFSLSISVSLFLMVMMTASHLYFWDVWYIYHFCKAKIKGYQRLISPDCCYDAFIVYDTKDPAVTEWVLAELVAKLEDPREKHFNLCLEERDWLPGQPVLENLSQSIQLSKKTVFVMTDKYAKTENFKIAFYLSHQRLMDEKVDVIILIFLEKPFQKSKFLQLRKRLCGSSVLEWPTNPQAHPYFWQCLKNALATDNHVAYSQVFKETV
# Text: (§1) TLR7/NF-κB/SEAPorter™ HEK293 cell line (Imgenex Corporation) is a stably co-transfected cell line which expresses full-length human TLR7 and secretory alkaline phosphatase (SEAP) reporter gene under the transcriptional regulation of an NF-κB response element. The TLR7 expression of the cell line has been already tested by flow cytometry. Transfectants with stable expression were selected using the antibiotic blasticidin and Geneticin. TLR signaling leads to the translocation of NF-κB and the activation of the promoter results in expression of the SEAP gene. TLR7-specific activation was assessed by determining the level of SEAP produced following 24-hour incubation of the cells at 37° C. with each compound prepared in Examples and Reference examples in the presence of 0.1% (v/v) dimethylsulfoxide (DMSO). The human TLR7 activity for the present compound was assessed by human TLR7 reporter gene assay, and the results are shown in Tables 3 and 4 as the compound concentration which produced half of the maximal level of SEAP induction (EC50)
# According to the method of Test 1, human TLR7 reporter gene assay was done with the following samples, and the result was shown in the table below. The cell used herein was HEK-Blue™ hTLR7 cell line (Invivogen). HEK-Blue™ hTLR7 cell line is a stably co-transfected cell line which expresses full-length human TLR7 and secretory SEAP reporter gene under the transcriptional regulation of an NF-κB response element. The TLR7 expression of the cell line has been already tested by RT-PCR. Transfectants with stable expression were selected using the antibiotic blasticidin and Zeocin.
# human TLR7 [2] = molecular target: T1, human TLR7; experiment: Human TLR7 reporter gene assay (TLR7/NF-κB/SEAPorter HEK293 cell line), Tests 1 and 21; format: cell-based; settings: Test 21; according to the method of Test 1; read-out: human EC50
# Text: Human TLR7 Reporter Gene Assay
# as §1
# According to the method of Test 1, human TLR7 reporter gene assay was done with the following samples, and the result was shown in the table below.
# [3] = test system: HLA-A*02:01 transgenic mouse; experiment: Test 10: in vivo adjuvant activity, cocktail vaccine b, IFNγ ELISPOT; settings: added to cocktail vaccine b; 0.4 nmol per body, twice; FIG. 8 and 9
# Protocol: Evaluation of In Vivo Adjuvant Activity in HLA-A*02:01 Transgenic Mouse
# The in vivo adjuvant activity of the compound of Example 11 was evaluated in the following procedure. To cocktail vaccine b like Test 9 was added the compound prepared in Example 11 to prepare a vaccine. The vaccine was administered to a HLA-A*02:01 transgenic mouse, and the adjuvant activity of the vaccine was evaluated by the method of testing antigen-specific CTL induction.
# Specifically, Compound of formula 4 and Peptide SEQ ID No. 3 were dissolved in DMSO, and then diluted with water for injection to concentrations of Compound of formula 4 of 3 mg/mL and Peptide SEQ ID No. 3 of 2.25 mg/mL. The diluted peptide solution was mixed and emulsified with an equal volume of Montanide ISA 51 VG to prepare cocktail vaccine b. Cocktail vaccine b was injected to mice intradermally at the tail base area in an amount for administering 300 μg of Compound of formula 4 per body and 225 μg of Peptide SEQ ID No. 3 per body. […] Then, after removal of the supernatant from the wells, stained spots on the ELISPOT plate were counted.
EC50 (human TLR7 [1]) [µM],EC50 (human TLR7 [2]) [µM],SMILES,CTL counts responsive to Peptide SEQ ID No. 1 or SEQ ID No. 4 compared with adding no compound [3]
0.119,,"CCC[C@@H](CO)Nc1nc(N)nc(C)c1Cc1ccc(C(=O)OCCOCCOCCOCCOC)cc1OC [Example 6, 2,5,8,11-tetraoxatridecan-13-yl 4-[(2-amino-4-{[(2S)-1-hydroxypentan-2-yl]amino}-6-methylpyrimidin-5-yl)methyl]-3-methoxybenzoate]",
0.071,,"CCCCCNc1nc(N)nc(C)c1Cc1ccc(COCCOCCOCCOCCOC)cc1OC [Example 7, 5-{[2-methoxy-4-(2,5,8,11,14-pentaoxapentadecan-1-yl)phenyl]methyl}-6-methyl-N^4-pentylpyrimidine-2,4-diamine]",
,0.774,"CCCCCNc1nc(N)nc(C)c1Cc1ccc(CN(CCOCCOCCOCCO)CCOCCOCCOCCO)cc1OC [Example 11, 12-[(4-{[2-amino-4-methyl-6-(pentylamino)pyrimidin-5-yl]methyl}-3-methoxyphenyl)methyl]-3,6,9,15,18,21-hexaoxa-12-azatricosan-1,23-diol]",more
